The values below come from patent publication US9802941B2, “Compounds and methods for inhibiting histone demethylases” (Gilead Sciences, Inc., priority 2014, dated 2017).

Each structure is given as a SMILES string. pIC50: −log10 of the molar value. Read-outs that look alike come from different tables or passages of the source.

Format in all cases: biochemical
One assay deals with T1, PHF8 (KDM7) (Homo sapiens, UniProt Q9UPP1).
T1 construct: KDM7 (PHF8); BRIC; 1-1322; Bac
The assay can be described thus: Histone lysine demethylase AlphaLISA assay, PHF8. A digest of the protocol:
(§1)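 Compounds preincubated 10 min with each demethylase in Hepes buffer (pH 7.4-8.0) containing Tween-20, 0.1% BSA and 5 μM Fe(II); substrate then added, room-temperature reaction. Read-out by AlphaLISA acceptor and streptavidin donor beads after incubation in the dark.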

Another assay deals with T2, KDM4C (JMJD2C) (Homo sapiens, UniProt Q9H3R0).
T2 construct: KDM4C; BRIC, Denmark; 1-349; E. coli; host or cells: E. coli
T2 sequence (Q9H3R0 1-349): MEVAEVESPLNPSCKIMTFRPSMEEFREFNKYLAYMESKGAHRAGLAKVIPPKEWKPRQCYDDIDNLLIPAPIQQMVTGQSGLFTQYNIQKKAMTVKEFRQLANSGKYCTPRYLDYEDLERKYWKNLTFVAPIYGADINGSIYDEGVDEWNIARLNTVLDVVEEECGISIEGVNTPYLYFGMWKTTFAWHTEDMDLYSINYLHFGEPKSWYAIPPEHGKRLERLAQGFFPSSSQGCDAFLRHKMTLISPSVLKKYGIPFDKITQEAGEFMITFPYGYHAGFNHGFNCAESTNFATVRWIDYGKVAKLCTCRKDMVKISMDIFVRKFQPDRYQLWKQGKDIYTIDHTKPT
Kind of assay: Histone lysine demethylase AlphaLISA assay, KDM4C. In short, it runs like this:
as §1
In general terms: Alpha assays give light when donor and acceptor beads are brought close together.

The target in a further assay is T3, KDM6A (UTX) (Homo sapiens, UniProt O15550).
T3 construct: KDM6A (UTX); BRIC; 919-1401; E. coli; host or cells: E. coli
Kind of assay: Histone lysine demethylase AlphaLISA assay, KDM6A. A digest of the protocol:
as §1

The target of another assay is T4, KDM5B (PLU-1) (Homo sapiens, UniProt Q9UGL1).
T4 construct: BRIC; 1-809; E. coli; host or cells: E. coli
T4 sequence (Q9UGL1 1-809): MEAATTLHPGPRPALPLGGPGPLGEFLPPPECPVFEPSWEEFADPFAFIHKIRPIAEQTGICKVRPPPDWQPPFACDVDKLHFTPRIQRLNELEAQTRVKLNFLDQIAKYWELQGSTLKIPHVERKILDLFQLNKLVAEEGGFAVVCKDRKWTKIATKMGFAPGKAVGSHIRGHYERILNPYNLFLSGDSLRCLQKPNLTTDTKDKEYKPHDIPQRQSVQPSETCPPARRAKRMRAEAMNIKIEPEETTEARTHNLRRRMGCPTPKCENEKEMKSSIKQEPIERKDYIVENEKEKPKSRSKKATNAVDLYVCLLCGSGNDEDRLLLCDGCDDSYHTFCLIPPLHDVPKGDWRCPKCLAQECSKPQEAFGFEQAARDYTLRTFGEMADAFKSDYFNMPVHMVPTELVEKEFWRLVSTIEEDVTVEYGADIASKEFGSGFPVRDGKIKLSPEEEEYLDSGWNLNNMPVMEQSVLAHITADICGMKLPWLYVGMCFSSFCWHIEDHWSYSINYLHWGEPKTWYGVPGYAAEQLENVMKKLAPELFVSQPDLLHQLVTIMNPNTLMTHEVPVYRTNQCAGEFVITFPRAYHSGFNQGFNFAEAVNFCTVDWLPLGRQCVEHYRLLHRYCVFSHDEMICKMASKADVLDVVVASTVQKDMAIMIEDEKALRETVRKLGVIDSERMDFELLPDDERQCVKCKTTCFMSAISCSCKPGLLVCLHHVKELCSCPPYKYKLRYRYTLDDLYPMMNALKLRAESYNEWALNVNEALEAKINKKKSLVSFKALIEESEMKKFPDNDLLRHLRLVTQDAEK
Kind of assay: Histone lysine demethylase AlphaLISA assay, KDM5B. In short, it runs like this:
as §1

The next assay has as its target T5, KDM2B (FBXL10) (Homo sapiens, UniProt Q8NHM5).
T5 construct: KDM2B; BPS,; 1-650; Bac; purchased BPS Bioscience, US; host or cells: baculovirus system
T5 sequence (Q8NHM5 1-650): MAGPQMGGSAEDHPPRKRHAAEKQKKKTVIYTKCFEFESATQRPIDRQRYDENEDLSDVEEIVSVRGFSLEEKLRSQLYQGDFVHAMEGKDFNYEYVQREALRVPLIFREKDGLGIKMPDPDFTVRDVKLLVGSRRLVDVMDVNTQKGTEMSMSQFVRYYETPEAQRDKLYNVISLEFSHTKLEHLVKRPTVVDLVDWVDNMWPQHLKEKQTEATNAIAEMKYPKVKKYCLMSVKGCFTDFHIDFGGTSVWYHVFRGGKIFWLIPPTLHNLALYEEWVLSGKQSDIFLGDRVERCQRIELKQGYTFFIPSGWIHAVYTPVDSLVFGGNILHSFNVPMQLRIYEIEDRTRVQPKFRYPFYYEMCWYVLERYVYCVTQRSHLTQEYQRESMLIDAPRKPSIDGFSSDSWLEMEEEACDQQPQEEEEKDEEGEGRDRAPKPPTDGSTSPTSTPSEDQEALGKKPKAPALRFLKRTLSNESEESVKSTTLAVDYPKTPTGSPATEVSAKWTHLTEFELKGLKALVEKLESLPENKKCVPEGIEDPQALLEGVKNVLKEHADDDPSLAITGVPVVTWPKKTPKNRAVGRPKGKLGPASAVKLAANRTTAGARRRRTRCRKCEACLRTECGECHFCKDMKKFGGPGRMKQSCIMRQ
Kind of assay: Histone lysine demethylase AlphaLISA assay, KDM2B. The settings on record: AlphaLISA, in vitro; read-out: HDME Inhibition KDM2B. A digest of the protocol:
as §1

T3 sequence (O15550 919-1401): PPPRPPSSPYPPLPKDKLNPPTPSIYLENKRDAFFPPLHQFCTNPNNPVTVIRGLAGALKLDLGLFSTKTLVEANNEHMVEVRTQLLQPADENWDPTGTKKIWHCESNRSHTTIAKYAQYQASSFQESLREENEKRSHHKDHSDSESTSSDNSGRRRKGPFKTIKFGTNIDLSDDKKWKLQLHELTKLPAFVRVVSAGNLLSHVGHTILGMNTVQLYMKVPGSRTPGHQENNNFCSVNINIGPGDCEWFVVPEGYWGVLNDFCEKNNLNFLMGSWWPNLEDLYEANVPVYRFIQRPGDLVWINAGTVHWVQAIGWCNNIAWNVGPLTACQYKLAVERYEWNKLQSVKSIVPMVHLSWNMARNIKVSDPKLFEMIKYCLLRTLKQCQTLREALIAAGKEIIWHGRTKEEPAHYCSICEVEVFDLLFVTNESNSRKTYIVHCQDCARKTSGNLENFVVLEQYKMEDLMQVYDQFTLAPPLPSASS
T1 sequence (Q9UPP1 37-440 limits assumed): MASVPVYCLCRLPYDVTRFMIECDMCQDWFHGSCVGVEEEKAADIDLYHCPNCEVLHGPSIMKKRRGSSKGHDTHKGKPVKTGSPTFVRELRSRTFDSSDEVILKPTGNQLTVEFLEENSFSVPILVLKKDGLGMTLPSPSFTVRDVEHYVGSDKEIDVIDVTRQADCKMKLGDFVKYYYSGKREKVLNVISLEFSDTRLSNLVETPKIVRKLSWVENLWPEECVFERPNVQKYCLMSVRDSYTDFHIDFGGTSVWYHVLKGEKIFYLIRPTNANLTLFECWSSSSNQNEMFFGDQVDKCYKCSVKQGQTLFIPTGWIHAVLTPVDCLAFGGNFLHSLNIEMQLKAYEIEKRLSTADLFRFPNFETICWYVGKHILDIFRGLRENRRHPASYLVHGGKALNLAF

Take `COCc1cc(C(=O)O)cc(CNCc2nccn2Cc2ccc(F)cc2)n1` [Compound 2, 2-{[({1-[(4-fluorophenyl)methyl]-1H-imidazol-2-yl}methyl)amino]methyl}-6-(methoxymethyl)pyridine-4-carboxylic acid]: the pIC50 at PHF8 (KDM7) (AlphaLISA assay, read-out: HDME Inhibition PHF8 (IC50)) was less than 5.00; at PHF8 (KDM7) (AlphaLISA, in vitro, read-out: HDME Inhibition PHF8) it was less than 5.00; at KDM4C (JMJD2C) (AlphaLISA assay, read-out: HDME Inhibition KDM4C (IC50)) it was less than 5.00; on KDM4C (JMJD2C) (AlphaLISA, in vitro, read-out: HDME Inhibition KDM4C) it was less than 5.00; at KDM6A (UTX) (AlphaLISA assay, read-out: HDME Inhibition KDM6A (IC50)), less than 5.00; on KDM6A (UTX) (AlphaLISA, in vitro, read-out: HDME Inhibition KDM6A), less than 5.00. In addition, the pIC50 at KDM5B (PLU-1) (AlphaLISA assay, read-out: HDME Inhibition KDM5B (IC50)) is less than 5.00; on KDM5B (PLU-1) (AlphaLISA, in vitro, read-out: HDME Inhibition KDM5B), less than 5.00; on KDM2B (FBXL10) it was 5.53.
